Where a name gives a salt, the structure may show the parent alone.
Key:
rat livers = assay: denitration rate in re-perfused rat livers (nitrate-like action); settings: rat liver re-perfused 4 min, equimolar 5×10^-5 M/l; freed NO2 determined in the perfusate; high values = fast denitration
β-receptor = assay: β-blocking effectiveness: inhibition of isoprenaline-induced increase of the frequency in rabbits; format: in vivo, rabbit; settings: i.v., isoprenaline 1 mcg/kg i.v.

Row | Compound | Vrel (denitration rate in relation to isosorbide-5-mononitrate) (rat livers) | ID 50 fcor (dose causing 50% inhibition of the increase of the frequency through isoprenaline) (β-receptor)
1 | O=[N+]([O-])O[C@@H]1CO[C@H]2[C@@H]1OC[C@@H]2O [Isosorbide-5-mononitrate, isosorbide-5-mononitrate, reference compound] | 0.86 | 
2 | CCOC(=O)c1cc(NC(=O)CCCO[N+](=O)[O-])ccc1OCC(O)CNC(C)(C)C (centres unmarked) [Example 7, 1-[2-Ethoxycarbonyl-4-(3-nitroxypropyl)-carbonylamino]phenoxy-3-tert.-butylaminopropan-2-ol cyclamate] | 1.72 | 1 619 mcg/kg
3 | CC(C)(C)NCC(O)COc1ccc(NC(=O)C(C)(C)CO[N+](=O)[O-])cc1 (centres unmarked) [2 (b), 1-[4-(2-methyl-1-nitroxy-2-propyl)-carbonylamino]-phenoxy-3-tert.-butylaminopropan-2-ol hydrochloride] | 0.68 | 4 164 mcg/kg
4 | CN(CC(C)(C)CO[N+](=O)[O-])C(=O)Cc1ccc(OCC(O)CNC(C)(C)C)cc1 (centres unmarked) [9 (c), 1-[4-[[N--(2,2-dimethyl-3-nitroxypropyl)-N--methyl]-amino]-carbonylmethyl]-phenoxy-3-tert.-butylaminopropan-2-ol fumarate] | 1.63 | 
5 | CC(C)(C)NCC(O)COc1ccc(NC(=O)CCCCO[N+](=O)[O-])cc1 (centres unmarked) [2 (a), 1-[4-(4-nitroxybutyl)-carbonylamino]-phenoxy-3-tert.-butylaminopropan-2-ol fumarate] | 0.65 | 
6 | CC(=O)c1cc(NC(=O)CCCO[N+](=O)[O-])ccc1OCC(O)CNC(C)(C)C (centres unmarked) [6 (a), 1-[2-methylcarbonyl-4-(3-nitroxypropyl)-carbonylamino]-phenoxy-3-tert.-butylaminopropan-2-ol fumarate] | 0.51 | 886 µg/kg
7 | C#CC(C)(C)NCC(O)COc1ccc(CC(=O)N2CCC(CO[N+](=O)[O-])CC2)cc1 (centres unmarked) [9 (j), 3-(2-methyl-3-butyn-2-yl)-amino-1-[4-(4-nitroxymethyl-1-piperidino)-carbonylmethyl]-phenoxypropan-2-ol fumarate] | 1.94 | 
8 | CC(C)(C)NCC(O)COc1ccc(NC(=O)[C@H]2CC[C@H](O[N+](=O)[O-])CC2)cc1 (relative stereo) [2 (e), 1-[4-[[(t-4-nitroxy)-cyclohexyl]-r-1-carbonylamino]]-phenoxy-3-tert.-butylaminopropan-2-ol hydrochloride] | 0.95 | 4 006 mcg/kg
9 | CC(C)(C)NCC(O)COc1ccc(NC(=O)[C@H]2CC[C@H](O[N+](=O)[O-])CC2)cc1C#N (relative stereo) [4 (c), 1-[2-cyano-4-[[(t-4-nitroxy)-cyclohexyl]-r-1-carbonylamino]]-phenoxy-3-tert.-butylaminopropan-2-ol benzoate] | 1.95 | 
10 | CC(C)(C)NCC(O)COc1ccc(CC(=O)NCCCO[N+](=O)[O-])cc1 (centres unmarked) [Example 8, 1-[4-[(3-Nitroxypropyl)-amino]-carbonylmethyl]-phenoxy-3-tert.-butylaminopropan-2-ol fumarate] | 0.48 | 
11 | CC(=O)c1cc(NC(=O)[C@H]2CC[C@H](O[N+](=O)[O-])CC2)ccc1OCC(O)CNC(C)(C)C (relative stereo) [6 (c), 1-[2-methylcarbonyl-4-[[(t-4-nitroxy)-cyclohexyl]-r-1-carbonylamino]]-phenoxy-3-tert.-butylaminopropan-2-ol hydrochloride] | 1.34 | 2 273 mcg/kg
12 | CC(CNC(=O)Cc1ccc(OCC(O)CNC(C)(C)C)cc1)O[N+](=O)[O-] (centres unmarked) [9 (a), 1-[4-[(2-nitroxypropyl)-amino]-carbonylmethyl]-phenoxy-3-tert.-butylaminopropan-2-ol hemifumarate] | 0.34 | 3 147 mcg/kg
13 | CC(C)(C)NCC(O)COc1ccc(CC(=O)N[C@@H]2CCCC[C@H]2O[N+](=O)[O-])cc1 (relative stereo) [9 (d), trans-1-[4-[(2-nitroxycyclohexyl)-amino]-carbonylmethyl]-phenoxy-3-tert.-butylaminopropan-2-ol] | 1.06 | 
14 | CC(C)(C)NCC(O)COc1ccc(NC(=O)CCCO[N+](=O)[O-])cc1C#N (centres unmarked) [4 (a), 1-[2-cyano-4-(3-nitroxypropyl)-carbonylamino]-phenoxy-3-tert.-butylaminopropan-2-ol hydrochloride] | 0.74 | 180 µg/kg
15 | CC(C)(C)NCC(O)COc1ccc(CC(=O)N2CCC(O[N+](=O)[O-])CC2)cc1 (centres unmarked) [9 (f), 1-[4-(4-nitroxy-1-piperidino)-carbonylmethyl]-phenoxy-3-tert.-butylaminopropan-2-ol fumarate] | 1.23 | 
16 | CC(C)(C)NCC(O)COc1ccc(CC(=O)N2CCCC(CO[N+](=O)[O-])C2)cc1 (centres unmarked) [9 (g), 1-[4-(3-nitroxymethyl-1-piperidino)-carbonylmethyl]-phenoxy-3-tert.-butylaminopropan-2-ol fumarate] | 1.69 | 
17 | CC(C)(C)NCC(O)COc1ccc(NC(=O)C[C@@H]2CCCC[C@H]2O[N+](=O)[O-])cc1 (relative stereo) [2 (g), 1-[4-[[(t-2-nitroxy)-cyclohexyl]-r-1-methylcarbonylamino] ]-phenoxy-3-tert.-butylaminopropan-2-ol hydrochloride] | 0.97 | 4 158 mcg/kg
18 | CC(C)(C)NCC(O)COc1ccc(NC(=O)CCCO[N+](=O)[O-])cc1 (centres unmarked) [Example 1, 1-[4-(3-Nitroxypropyl)-carbonylamino]-phenoxy-3-tert.-butylaminopropan-2-olhydrochloride] | 0.77 | 2 326 mcg/kg
19 | CC(C)(C)NCC(O)COc1ccc(CC(=O)N2CCC(CO[N+](=O)[O-])CC2)cc1 (centres unmarked) [9 (h), 1-[4-(4-nitroxymethyl-1-piperidino)-carbonylmethyl]-phenoxy-3-tert.-butylaminopropan-2-ol fumarate] | 1.06 | 1 207 mcg/kg
